Patent US20240115530A1, “ADMINISTRATION OF BAIBA TO INCREASE BENEFIT OF LOSING WEIGHT OF INTERMITTENT FASTING” (NANJING NUTRABUILDING BIO-TECH CO., LTD., priority 2021, published 2024)

Key:
Assay type in all cases: in vivo, C57BL/6 male mice
[1] = Blood glucose and oral glucose tolerance test (OGTT) in HFD-fed obese mice; conditions: 150 mg/kg daily per oral, vs same regimen without L-BAIBA
Text: (§1) Each study group consisted of ten animals, and treatment details of the individual study groups are given below: • Group A (GA, NC): Normal mice, maintained on normal diet for 11 weeks, receiving neither EODF nor L-BAIBA treatment. • Group B1 (GB1, HFD): Obese mice, maintained on high fat diet (HFD) for 11 weeks, receiving neither EODF nor L-BAIBA treatment. • Group B2 (GB2, HFD+EODF): Obese mice, maintained on HFD for 11 weeks, receiving only EODF and no L-BAIBA treatment. • Group B3 (GB3, HFD+BAIBA): Obese mice, maintained on HFD for 11 weeks, receiving only L-BAIBA treatment and no EODF. • Group B4 (GB4, HFD+EODF+BAIBA): Obese mice, maintained on HFD for 11 weeks, receiving L-BAIBA treatment and EODF combination.
(§2) L-BAIBA was administered daily via per oral route according to a level of 150 mg/kg body weight. Animals not receiving L-BAIBA were given orally with ultrapure water.
(§3) Intermittent fasting model: HFD fed male mice in groups at 8 weeks of age were randomly assigned into either ad libitum, or every-other-day-fasting (EODF) groups on a per cage basis. All cage bedding was changed to paper bedding for the duration of the model. […]
Glucose levels in blood were measured weekly (week 12-19) on the starting day of every week before the day's EODF and L-BAIBA dosing activities. […]

[2] = Serum insulin and leptin by ELISA in HFD-fed obese mice; conditions: 150 mg/kg daily per oral, end of treatment period, with or without EODF, vs same regimen without L-BAIBA
Text: as §1, §2, §3
Serum levels of insulin and leptin were determined at the end of the treatment period by standard ELISA methods. […]

[3] = Body weight reduction in HFD-fed obese mice with or without EODF; conditions: 150 mg/kg daily per oral, 8-week treatment, vs same regimen without L-BAIBA
Experimental: 50 C57BL/6 male mice aged about 8 weeks, are randomly assigned to five study groups (GA, GB1, GB2, GB3, GB4) of ten mice each (two cages, 1 cage, n=5 per condition). Each animal's body weight is measured by a weight scale and recorded.
The total experimental time is 19 weeks, including two periods: an eleven-week induction period and a subsequent eight-week treatment period.
as §1
L-BAIBA was administered daily via per oral route according to a level of 150 mg/kg body weight. […]
Each mouse's body weight is measured weekly during the study at 1200 h. FIG. 1 is the average body weight of mice in all test groups (Body weight were recorded from the beginning of the experiment). […]

[4] = Blood lipid biochemistry (TG, TCHO, LDL, VLDL) in HFD-fed obese mice; conditions: 150 mg/kg daily per oral, end of study, with or without EODF, vs same regimen without L-BAIBA
Text: as §1, §2
Intermittent fasting model: HFD fed male mice in groups at 8 weeks of age were randomly assigned into either ad libitum, or every-other-day-fasting (EODF) groups on a per cage basis. All cage bedding was changed to paper bedding for the duration of the model. Mice in the EODF group had total deprivation of food and ad libitum access to water from 1200 h-1200 h on alternate days with ad libitum food and water access. EODF cages were changed upon induction of fasting. Ad libitum control mice cages were changed every other day with fresh food provided.
50 C57BL/6 male mice aged about 8 weeks, are randomly assigned to five study groups (GA, GB1, GB2, GB3, GB4) of ten mice each (two cages, 1 cage, n=5 per condition).
The same procedures were conducted as above-discussed Example 1.
At the end of the study, blood was collected from all test groups and a various clinical parameter were determined: triglyceride (TG), total cholesterol (TCHO), low-density lipoprotein (LDL) and very low-density lipoprotein (VLDL). FIG. 2a-2d are the results of TG, TCHO, LDL and VLDL in all test groups, respectively. […] This effect persists for as long as the test protocol is continued.

## C[C@@H](CN)C(=O)O [L-BAIBA, L-β-aminoisobutyric acid]
[1]; OGTT after the treatment period, with or without EODF
  glucose tolerance (OGTT): better glucose tolerance
[1]; measured weekly week 12-19, with or without EODF
  blood glucose level: greater reduction in blood glucose level
[2]
  insulin resistance (serum insulin): improved
  leptin resistance (serum leptin): improved leptin resistance
[3]
  body weight: greater reduction in body weight
[4]
  low-density lipoprotein (LDL) level in blood: lower levels
  total cholesterol (TCHO) level in blood: lower levels
  triglyceride (TG) level in blood: lower levels
  very low-density lipoprotein (VLDL) level in blood: lower levels
